“Also recorded” adds a separate entry of the source.
Key:
H1975 cells = assay: MTT cell viability, H1975; format: cell-based; conditions: EGFR driver mutation T790M, 3 days
Experimental: (§1) 2 × 10^3 cells were plated per well in a 96 well plate and left to adhere overnight. The following day, drug treatments were started and continued for 3 days. To measure the viability of the remaining cell population, 10% 3-(4,5-dimethylthiazol-2-yl)-2,5-diphenyltetrazolium (MTT) in media was added and incubated for 2 hours and conversion of MTT to formazan at 540 nm using a biotech Synergy LX plate reader.
(§2) A–G Cells were plated in a 96-well plate at 2000 cells per well. […] Cell viability was then measured with an MTT assay, viability of treated cells were compared with the vehicle control. H MDA-MB-468 cells were plated and incubated+/− IPTG for 2 days prior to drug treatment to induce expression of an EGFR-targeted shRNA.

BT20 cells = assay: BT20 mammosphere formation; format: cell-based
Experimental: 20,000 BT20 cells were suspended in mammosphere media (15 mL Mammocult media supplemented with 1.7 mL Proliferation supplement, 1.5 μL hydrocortisone, 30 μL heparin, and 150μL penicillin/streptomycin) and plated onto a low adhesion 6-well plate. After one week the number of spheres per well were counted. Cells from selected wells were then dissociated in trypsin EDTA and plated with fresh mammosphere media to develop secondary mammospheres.
(§3) Cells were then fractionated and verified by HSP90 cytosolic protein, Bap31 membrane protein, or HDAC nuclear protein. […] After the second week, the number of secondary mammospheres were counted.
These spheres were then disassociated and re-plated to form secondary mammospheres.

[1] = tested on: nuclear EGFR in MDA-MB-468 cells; assay: Nuclear EGFR by subcellular fractionation; format: cell-based; conditions: serum starved, 20 ng/mL EGF and peptide, 2 h; subcellular fractionation and immunoblot
Experimental: Cells were trypsinized and washed with PBS, followed by centrifugation at 100 g (4 °C) for 5 minutes. The cell pellet was resuspended in ice-cold cytosolic fraction buffer (150 mM NaCl, 50 mM HEPES pH 7.4, 25 ug/mL digitonin, with Complete protease inhibitors (Roche) and phosphatase inhibitors (2.0 mM sodium orthovanadate, 10.0 μM ammonium molybdate and 10.0 mM sodium fluoride) and tumbled at 4 °C for 10 minutes, followed by centrifuged at 2000 g, 4 °C for 10 minutes and the cytosolic fraction transferred retained for analysis as the cytosolic fraction. The pellet was then washed twice in ice-cold PBS, resuspended in membrane fraction buffer (150 mM NaCl, 50 mM HEPES pH 7.4, 1% NP-40, with protease and phosphatase inhibitors) and incubated on ice for 30 minutes. […]
Lysates were prepared as described, protein concentrations determined by BCA assay (Pierce) and resolved via standard SDS-PAGE [18]. Gels were transferred to either PVDF (Immobilon P or Immobilon FL) membrane and probed with the indicated antibodies and analyzed by either HRP-linked secondaries (Pierce) or IRDye secondaries (Li-Cor), followed by development in Dura Signal (Pierce) or IR (Licor). […]
as §3

[2] = tested on: EGFRkin / SNX1 BAR domain; assay: Competitive binding assay, SNX BAR / EGFRkin; design: species or system human; conditions: 2.5 μM peptide; data not shown
CHO cells = assay: MTT cell viability, CHO; format: cell-based, Chinese hamster; conditions: CHO cells lack EGFR expression, 3 days
Experimental: as §1, §2
Supplementary Figure 1. A. BT20 triple negative breast cancer cells were treated with SNX1.1, 1.2, or 1.3 for 3 days and their viability was measured via MTT analysis. B. CHO cells were treated with PTD4 or SNX1.3 for 3 days and their viability was measured via MTT analysis.

MDA-MB-468 cells = format: cell-based; conditions: 3 days, MTT
Experimental: as §1
A Peptide sequence alignment of modified and stabilized peptides (−) indicates conserved residues, (/) indicates a deleted residue. Modified residues used for staples are (S)-2-(((9H-flouren-9-yl) methoxy) caronylamino)-2-methyl-hept-6-enoic acid and (R)-2-(((9H-flouren-9-yl) methoxy) caronylamino)-2-methyl-dec-9-enoic acid. PTD4 = Protein Transduction Domain. Ac = acetylation of […] and NH2 = amidation of […]. B MDA-MB-468 cells were treated with 10 μM of the indicated peptide for 3 days. Cell viability was measured using an MTT assay. Vehicle control represents 100%. C. A predicted peptide structure of SNX1.3 was generated using SWISSMODEL with negative (blue) and positive (red) residues highlighted.
A–G Cells were plated in a 96-well plate at 2000 cells per well. […] Cell viability was then measured with an MTT assay, viability of treated cells were compared with the vehicle control. […]

MCF10A cells = assay: MTT cell viability, MCF10A; format: cell-based; conditions: immortalized breast epithelial line, 3 days
Experimental: as §1, §2

`CC[C@H](C)[C@H](NC(=O)[C@@H](NC(=O)[C@H](Cc1c[nH]cn1)NC(=O)[C@H](CC(N)=O)NC(=O)[C@H](CCCCN)NC(=O)[C@H](C)NC(=O)[C@H](CCCNC(=N)N)NC(=O)[C@H](C)NC(=O)[C@H](CCC(N)=O)NC(=O)[C@H](CCCNC(=N)N)NC(=O)[C@H](C)NC(=O)[C@H](C)NC(=O)[C@H](C)NC(=O)[C@H](CCCNC(=N)N)NC(=O)[C@H](C)NC(=O)[C@H](Cc1ccc(O)cc1)NC(C)=O)C(C)C)C(=O)N[C@@H](CCCCN)C(=O)N[C@@H](Cc1ccc(O)cc1)C(=O)N[C@@H](CC(C)C)C(=O)N[C@@H](CCC(=O)O)C(=O)N[C@H](C(=O)N[C@@H](CC(C)C)C(=O)N[C@@H](CC(C)C)C(=O)N[C@@H](Cc1ccc(O)cc1)C(=O)N[C@@H](CO)C(=O)N[C@@H](CCC(N)=O)C(=O)N[C@@H](CCC(N)=O)C(=O)N[C@@H](CCC(N)=O)C(=O)N[C@@H](CC(C)C)C(=O)N[C@@H](C)C(=O)N[C@@H](CCCCN)C(=O)N[C@@H](Cc1ccc(O)cc1)C(=O)N[C@@H](Cc1c[nH]c2ccccc12)C(=O)N[C@@H](CCC(=O)O)C(=O)N[C@@H](C)C(=O)N[C@@H](Cc1ccccc1)C(=O)N[C@@H](CC(C)C)C(N)=O)[C@@H](C)O` [cSNX1.3] was tested. Which “effect on cell viability” value (H1975 cells) did it give?
The value was “minimal effect”.

What about the primary mammosphere formation (BT20 cells; 1 week treatment, low adhesion plate) of the same molecule?
Its primary mammosphere formation is “no mammospheres were formed”.

What about the “secondary mammosphere formation, treated in the first week” value (BT20 cells; cSNX1.3 in first week, then cPTD4 or vehicle in second week) of the same molecule?
The value was “reduction in sphere formation”.

What about the “secondary mammosphere formation, treated in the second week” value (BT20 cells; treated during second week) of the same molecule?
The value was “no mammosphere formation”.

And the “nuclear-localized EGFR” value [1]?
The value was “inhibits the nuclear localization of EGFR; also recorded: loss of nuclear-localized EGFR”.

And the “inhibition of SNX BAR binding to EGFRkin” value [2]?
The value was “blocks SNX BAR binding to EGFRkin”.

And the “impact on cell viability / growth” value (CHO cells)?
Its value is “almost no impact”.

And the “inhibition of cell survival compared with Sapitinib” value (MDA-MB-468 cells)?
Its value is “more effective than Sapitinib”.

What about the “impact on cell viability / growth” value (MCF10A cells) of the same molecule?
The value was “almost no impact”.
